Assay results as given in ChEMBL document CHEMBL3431459, “Roche carnitine palmitoyltransferase modulator screening data (supplementary data associated with the publication CHEMBL2216752)”.
≈ marks a conversion by molar mass, not a printed value.

Legend:
[1] = target: T1, Carnitine O-palmitoyltransferase 1, muscle isoform (Homo sapiens, UniProt Q92523); experiment: SUPPLEMENTARY: Inhibition of Carnitine palmitoyltransferase 1, muscle isoform; design: species or system Muscle tissue
T1 sequence (Q92523 whole entry): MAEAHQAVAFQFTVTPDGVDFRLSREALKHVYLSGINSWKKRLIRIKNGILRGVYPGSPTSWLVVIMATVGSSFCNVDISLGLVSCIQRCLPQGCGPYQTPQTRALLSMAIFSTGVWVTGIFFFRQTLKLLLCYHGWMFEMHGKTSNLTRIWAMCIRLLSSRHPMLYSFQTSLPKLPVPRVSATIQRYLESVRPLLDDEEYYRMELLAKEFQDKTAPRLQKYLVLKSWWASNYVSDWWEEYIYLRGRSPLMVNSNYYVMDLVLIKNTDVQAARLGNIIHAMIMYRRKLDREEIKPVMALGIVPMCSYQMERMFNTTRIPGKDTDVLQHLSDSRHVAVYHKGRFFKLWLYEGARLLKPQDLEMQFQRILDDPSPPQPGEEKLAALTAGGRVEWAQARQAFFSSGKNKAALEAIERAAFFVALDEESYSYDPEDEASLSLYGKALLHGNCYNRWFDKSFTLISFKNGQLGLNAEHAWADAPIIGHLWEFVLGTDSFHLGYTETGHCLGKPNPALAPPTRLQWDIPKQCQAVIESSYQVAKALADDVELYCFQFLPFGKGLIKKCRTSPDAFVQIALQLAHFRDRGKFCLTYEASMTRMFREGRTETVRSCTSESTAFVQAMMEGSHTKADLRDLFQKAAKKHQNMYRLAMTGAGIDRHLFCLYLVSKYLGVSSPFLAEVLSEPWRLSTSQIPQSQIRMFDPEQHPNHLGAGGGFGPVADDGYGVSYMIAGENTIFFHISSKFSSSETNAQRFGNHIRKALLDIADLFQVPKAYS

[2] = target: T2, Carnitine O-palmitoyltransferase 1, liver isoform (Homo sapiens, UniProt P50416); experiment: (§1) SUPPLEMENTARY: Inhibition of Carnitine palmitoyltransferase 1, liver isoform
T2 sequence (P50416 whole entry): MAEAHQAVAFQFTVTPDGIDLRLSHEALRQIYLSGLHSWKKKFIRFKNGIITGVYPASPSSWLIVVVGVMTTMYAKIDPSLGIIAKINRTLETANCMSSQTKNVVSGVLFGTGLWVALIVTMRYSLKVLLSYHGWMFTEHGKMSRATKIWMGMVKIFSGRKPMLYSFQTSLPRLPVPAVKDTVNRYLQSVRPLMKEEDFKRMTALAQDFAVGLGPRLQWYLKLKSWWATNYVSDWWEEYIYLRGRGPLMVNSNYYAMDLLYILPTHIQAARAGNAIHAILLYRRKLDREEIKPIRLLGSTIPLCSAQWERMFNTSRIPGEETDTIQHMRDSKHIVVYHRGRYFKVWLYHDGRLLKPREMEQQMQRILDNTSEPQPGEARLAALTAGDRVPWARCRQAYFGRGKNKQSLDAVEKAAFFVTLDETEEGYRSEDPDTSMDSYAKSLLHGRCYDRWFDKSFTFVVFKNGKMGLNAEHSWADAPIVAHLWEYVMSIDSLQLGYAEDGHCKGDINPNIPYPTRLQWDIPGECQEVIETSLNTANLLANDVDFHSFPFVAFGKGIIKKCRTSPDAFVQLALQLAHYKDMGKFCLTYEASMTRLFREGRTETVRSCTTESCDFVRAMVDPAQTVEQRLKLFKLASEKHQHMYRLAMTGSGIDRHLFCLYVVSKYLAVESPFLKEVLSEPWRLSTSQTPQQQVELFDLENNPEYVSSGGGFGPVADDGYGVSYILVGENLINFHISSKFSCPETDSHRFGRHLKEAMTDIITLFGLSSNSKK

[3] = target: T3, Carnitine O-palmitoyltransferase 1, liver isoform (Rattus norvegicus, UniProt P32198); experiment: as §1
T3 sequence (P32198 whole entry): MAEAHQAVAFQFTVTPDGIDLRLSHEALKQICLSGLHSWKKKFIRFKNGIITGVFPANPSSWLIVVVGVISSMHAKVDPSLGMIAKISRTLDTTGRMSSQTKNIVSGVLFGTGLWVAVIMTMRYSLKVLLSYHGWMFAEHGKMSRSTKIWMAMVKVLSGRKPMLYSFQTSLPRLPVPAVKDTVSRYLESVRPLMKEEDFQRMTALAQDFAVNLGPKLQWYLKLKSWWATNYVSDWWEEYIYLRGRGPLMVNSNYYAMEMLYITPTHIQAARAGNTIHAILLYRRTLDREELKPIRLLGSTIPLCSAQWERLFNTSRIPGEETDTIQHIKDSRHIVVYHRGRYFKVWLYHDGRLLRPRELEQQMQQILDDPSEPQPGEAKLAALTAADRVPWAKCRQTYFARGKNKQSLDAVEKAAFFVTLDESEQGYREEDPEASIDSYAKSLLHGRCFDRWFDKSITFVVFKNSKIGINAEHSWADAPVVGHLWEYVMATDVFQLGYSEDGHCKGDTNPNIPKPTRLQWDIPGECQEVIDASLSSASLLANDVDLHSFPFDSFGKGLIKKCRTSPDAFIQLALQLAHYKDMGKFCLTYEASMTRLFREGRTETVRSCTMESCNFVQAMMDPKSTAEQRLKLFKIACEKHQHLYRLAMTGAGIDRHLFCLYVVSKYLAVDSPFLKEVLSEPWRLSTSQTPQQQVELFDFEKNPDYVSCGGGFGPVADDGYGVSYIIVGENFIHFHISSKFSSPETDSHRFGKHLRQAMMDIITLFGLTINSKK

[4] = SUPPLEMENTARY: Lipophilicity (log D) Determination by high-throughput shake-flask; type: physicochemical; details: octanol/water
[5] = target: T4, Carnitine O-palmitoyltransferase 2, mitochondrial (Homo sapiens, UniProt P23786); experiment: (§2) SUPPLEMENTARY: Inhibition of Carnitine palmitoyltransferase 2
T4 sequence (P23786 whole entry): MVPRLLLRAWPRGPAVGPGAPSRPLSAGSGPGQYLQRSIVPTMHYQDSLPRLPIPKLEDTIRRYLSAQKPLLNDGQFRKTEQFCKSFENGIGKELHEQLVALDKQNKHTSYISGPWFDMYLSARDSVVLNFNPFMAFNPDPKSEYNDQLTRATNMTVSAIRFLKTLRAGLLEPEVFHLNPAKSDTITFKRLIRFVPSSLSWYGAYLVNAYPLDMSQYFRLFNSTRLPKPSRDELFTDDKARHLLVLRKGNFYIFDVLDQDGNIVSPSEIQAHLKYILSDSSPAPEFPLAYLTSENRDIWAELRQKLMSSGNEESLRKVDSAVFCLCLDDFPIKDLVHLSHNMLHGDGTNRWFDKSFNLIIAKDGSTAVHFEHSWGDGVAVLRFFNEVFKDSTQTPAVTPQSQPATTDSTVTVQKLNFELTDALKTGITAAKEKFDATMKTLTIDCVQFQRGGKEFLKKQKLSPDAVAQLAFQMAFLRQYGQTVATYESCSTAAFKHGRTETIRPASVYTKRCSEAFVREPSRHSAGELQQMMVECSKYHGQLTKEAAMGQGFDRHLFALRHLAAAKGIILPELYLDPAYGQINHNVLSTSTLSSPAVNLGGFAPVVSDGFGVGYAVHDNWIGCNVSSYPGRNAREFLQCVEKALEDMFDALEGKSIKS

[6] = target: T5, Carnitine O-palmitoyltransferase 2, mitochondrial (Rattus norvegicus, UniProt P18886); experiment: as §2
T5 sequence (P18886 whole entry): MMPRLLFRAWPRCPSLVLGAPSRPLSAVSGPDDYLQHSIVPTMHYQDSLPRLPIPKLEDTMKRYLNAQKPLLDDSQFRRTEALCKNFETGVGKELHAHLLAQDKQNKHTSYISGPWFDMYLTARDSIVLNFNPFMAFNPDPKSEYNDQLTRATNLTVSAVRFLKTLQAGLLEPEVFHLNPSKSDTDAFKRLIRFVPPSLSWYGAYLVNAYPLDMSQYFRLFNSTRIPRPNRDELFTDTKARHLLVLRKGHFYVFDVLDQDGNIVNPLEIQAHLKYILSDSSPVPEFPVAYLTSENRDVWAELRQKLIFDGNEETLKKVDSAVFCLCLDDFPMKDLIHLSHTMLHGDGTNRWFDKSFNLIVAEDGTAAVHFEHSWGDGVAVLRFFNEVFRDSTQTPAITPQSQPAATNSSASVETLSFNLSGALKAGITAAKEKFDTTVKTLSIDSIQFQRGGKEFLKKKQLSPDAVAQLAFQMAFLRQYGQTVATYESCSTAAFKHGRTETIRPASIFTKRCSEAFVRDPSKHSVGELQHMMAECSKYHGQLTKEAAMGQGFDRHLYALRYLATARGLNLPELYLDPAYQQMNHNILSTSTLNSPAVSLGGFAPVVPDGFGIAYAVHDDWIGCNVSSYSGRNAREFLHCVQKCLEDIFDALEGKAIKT

[7] = SUPPLEMENTARY: Lyophilisation Solubility Assay (LYSA); type: physicochemical; details: read-out: Kinetic_solubility
[8] = SUPPLEMENTARY: PAMPA permeability assay; type: physicochemical; details: read-out: Permeability

SMILES | IC50 [1] [µM] | IC50 [2] [µM] | IC50 [3] [µM] | logD [4] | IC50 [5] [µM] | IC50 [6] [µM] | solubility kinetic [7] [mg/mL] | Papp [8] [nm/s]
Cc1nnsc1-c1noc([C@H]2CCCCN2C(=O)COc2ccccc2)n1 | > 100 | 0.293 | 1.67 | 3.04 | > 100 | > 100 | 0.027 (≈ 70 µM) | 59.5
CCn1c(C)nc(Cl)c1-c1noc([C@H]2CCCCN2C(=O)COc2ccccc2)n1 | > 100 | 0.0738 | 0.164 | 3.17 | 37.3 | > 100 | 0.024 (≈ 55.8 µM) | 39.8
Cn1cnc(Br)c1-c1noc([C@H]2CCCCN2C(=O)COc2ccccc2)n1 | > 100 | 0.0793 | 0.25 | 2.68 | 40.5 | > 100 | 0.083 (≈ 186 µM) | 56
COc1ccc(Cl)cc1S(=O)(=O)c1cn(C)c2ccc(C(=O)Nc3ccc(C(=O)O)cc3)cc12 | 2.32 | 0.0716 | 0.0518 | 2.36 | 0.579 | 4.27 | 0.012 (≈ 24.1 µM) | 4.7
Cc1ncc(-c2noc([C@H]3CCCCN3C(=O)COc3ccccc3)n2)c(=O)[nH]1 | > 100 | 0.14 | 1.56 | 1.14 | > 100 | > 100 | > 0.505 | 30.3
NS(=O)(=O)c1ccc(-c2noc(C3C4CC4CN3C(=O)COc3ccccc3)n2)cc1 (stereo not given) | > 100 | 0.11 | 0.0908 | 2.04 | > 100 | > 100 | 0.045 (≈ 102 µM) | 51.7
COc1ccc(Cl)cc1S(=O)(=O)N1CCOc2c(F)cc(C(=O)Nc3ccc(C(=O)O)c(F)c3)cc21 | 4.56 | 0.0575 | 0.0567 | 0.52 | 1.53 | 6.51 | 0.007 (≈ 13 µM) | 16.6
COc1ccc(Cl)cc1S(=O)(=O)N1CCOc2c(F)cc(C(=O)Nc3ccc(C(=O)O)c(Cl)c3)cc21 | 5.11 | 0.131 | 0.166 | 0.42 | 1.72 | 5.74 | 0.38 (≈ 684 µM) | 14.5
COc1ccc(Cl)cc1S(=O)(=O)N1CCOc2c(Cl)cc(C(=O)Nc3ccc(C(=O)O)cc3)cc21 | 2.61 | 0.077 | 0.0494 | 3.15 | 0.578 | 28.2 | 0.001 (≈ 1.86 µM) | 21.9
COc1ccc(Cl)cc1S(=O)(=O)N1COc2c(C)cc(C(=O)Nc3ccc(C(=O)O)cc3)cc21 | 35.9 | 0.0782 | 0.0794 | 1.32 | 0.312 | 2.01 | 0.013 (≈ 25.8 µM) | 18.5
